Broadly, the IC50 is the midpoint of a concentration-inhibition curve.

The test system of the assay is parental CHO-K1 cells, HTRF counterscreen. In words: nonspecific inhibition in untransfected CHO-K1 – cell-based, HTRF, dose response, counter-screen for OX1R antagonist project, late-stage follow-up (AID 624407).

Molecules are shown by their SMILES. The source made the active and inactive calls. No rule for the calls is given here.

As for `CSc1cccc(NC(=O)C2CCCN2S(=O)(=O)c2ccc(Br)s2)c1` (stereo unspecified), the IC50 was > 59.6 µM (inactive).

Consider `Cc1c(NS(=O)(=O)c2cccc(C(=O)OCC(=O)N(C)C3CCCCC3)c2)c(=O)n(-c2ccccc2)n1C`, for which the IC50 is > 59.6 µM (inactive).

In the case of `Cc1cccc(C=NNC(=O)c2cc3c(s2)-c2ccccc2CC3)c1`, the IC50 was > 59.6 µM (inactive).

For the compound `Cc1cccc(NC(=O)[C@@H]2CCCN2S(=O)(=O)c2ccc(Cl)cc2)c1`, the IC50 is > 59.6 µM (inactive).

Regarding `Cc1cc(Cl)ccc1OCCCC(=O)NCCN1C(=O)S/C(=C\c2cccnc2)C1=O`, the IC50 was 8.79 µM.

Take `CCOC(=O)N1CCN(C(=O)CSc2ccc(-c3ccccc3)nn2)CC1`: the IC50 was > 59.6 µM (inactive).

Turning to `COCCCNC(=O)CCC(=O)NNc1nc2ccccc2c2nc(-c3ccccc3)nn12`, the IC50 is > 59.6 µM (inactive).

Consider `CCc1cc(C(=O)OCC(=O)N2CCC(c3ccccc3)=N2)sc1C`, for which the IC50 is > 59.6 µM (inactive).

For `CCOc1ccccc1C(=O)Nc1ccc2nc3n(c(=O)c2c1)CCCCC3`, the IC50 was > 59.6 µM (inactive).

Turning to `COc1ccc(OC)c(S(=O)(=O)NCC(c2ccco2)N2CCc3ccccc32)c1` (stereo unspecified), the IC50 is > 59.6 µM (inactive).

`CSc1cccc(N2CC(C(=O)NCCN3C(=O)S/C(=C\c4cccnc4)C3=O)CC2=O)c1` (stereo unspecified): the IC50 was 3.37 µM.

As for `CCSC1=C(C#N)C(c2ccccc2Cl)C(C(=O)c2cccs2)C(O)(C(F)(F)F)N1` (stereo unspecified), the IC50 was > 59.6 µM (inactive).

As to `COc1cccc(/C=C2/Oc3ccccc3N(CC(=O)NCC3CCCO3)C2=O)c1` (stereo unspecified), the IC50 is > 59.6 µM (inactive).

For `CCc1cc2c(SCC(=O)N(CC)c3c(N)n(Cc4ccccc4)c(=O)[nH]c3=O)ncnc2s1`, the IC50 is > 59.6 µM (inactive).

On to `O=C(CSc1ccc(-c2ccccc2)nn1)c1cccs1`, for which the IC50 was > 59.6 µM (inactive).

As to `Cc1ccccc1NC(=O)C1CCCN1S(=O)(=O)c1ccccc1C(F)(F)F` (stereo unspecified), the IC50 was > 59.6 µM (inactive).

As for `Cc1noc(C)c1COc1ccc(C(=O)OCC(=O)N2CC(=O)Nc3ccccc32)cc1`, the IC50 was > 59.6 µM (inactive).

For `CN(N=Cc1cc([N+](=O)[O-])ccc1O)c1ccccc1`, the IC50 is > 59.6 µM (inactive).

As to `O=C(CN1C(=O)/C(=C\c2cccc(Br)c2)Oc2ccccc21)NCC1CCCO1` (stereo unspecified), the IC50 is > 59.6 µM (inactive).

On to `Cc1ccc(-c2csc3nnc(SCC(=O)Nc4nsc(-c5ccccc5)n4)n23)cc1`, for which the IC50 is > 59.6 µM (inactive).

In the case of `COc1cc(OC)c(-c2nc3ccccc3s2)cc1OC`, the IC50 was > 59.6 µM (inactive).

As for `CCn1c(SCC(=O)Nc2ccc3c(c2)c2ccccc2n3CC)nnc1-c1cnccn1`, the IC50 was > 59.6 µM (inactive).

As to `O=c1cc(CN2CC(O)Cc3ccc4ccccc4c32)nc2sccn12` (stereo unspecified), the IC50 is > 59.6 µM (inactive).

On to `CC(=C/c1ccccc1)/C=C1/SC(N2CCOCC2)=NC1=O`, for which the IC50 is 12.4 µM (inactive).

As for `CCN(CC)c1ccc(NC(=O)Cn2c(C(C)NC(=O)c3ccccc3)nc3ccccc32)cc1` (stereo unspecified), the IC50 was > 59.6 µM (inactive).

On to `Fc1cccc(Nc2nc3ccccc3n3cnnc23)c1`, for which the IC50 is > 59.6 µM (inactive).

(Values after PubChem BioAssay AID624407 (The Scripps Research Institute Molecular Screening Center, 2012).)
